#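 Assay format: 96-well plates, 48-hour exposure. At the GI50, growth is halved. TGI denotes the concentration required for complete inhibition of growth.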
# Key:
# Experiment in all cases: NCI-60 cell line screen, 48 h
# [1] = tested on: CAKI-1 renal
# [2] = tested on: UACC-62 melanoma
# [3] = tested on: TK-10 renal
# [4] = tested on: NCI/ADR-RES ovarian
# [5] = tested on: SF-539 CNS
# [6] = tested on: MDA-MB-435
# [7] = tested on: MALME-3M melanoma
# [8] = tested on: SNB-19 CNS
# [9] = tested on: SW-620 colon
# [10] = tested on: UACC-257 melanoma
# [11] = tested on: OVCAR-8 ovarian
# [12] = tested on: NCI-H23 lung
# [13] = tested on: COLO 205 colon
# [14] = tested on: 786-0 renal
# [15] = tested on: K-562 leukemia
# [16] = tested on: MOLT-4 leukemia
# [17] = tested on: BT-549 breast
# [18] = tested on: UO-31 renal
# [19] = tested on: A498 renal
# [20] = tested on: SF-295 CNS
# [21] = tested on: MDA-MB-231 breast
# [22] = tested on: NCI-H226 lung
# [23] = tested on: T-47D breast
# [24] = tested on: KM12 colon
# [25] = tested on: EKVX NSCLC
# [26] = tested on: HCT-116 colon
# [27] = tested on: HL-60(TB) leukemia
# [28] = tested on: HCT-15 colon
# [29] = tested on: IGROV1 ovarian
# [30] = tested on: HS 578T breast
# [31] = tested on: SK-MEL-2 melanoma
# [32] = tested on: OVCAR-5 ovarian
# [33] = tested on: M14 melanoma
# [34] = tested on: RXF 393 renal
# [35] = tested on: HCC-2998 colon
# [36] = tested on: SNB-75 CNS
# [37] = tested on: SF-268 CNS
# [38] = tested on: NCI-H522 lung
# [39] = tested on: OVCAR-4 ovarian
# [40] = tested on: A549 NSCLC
# [41] = tested on: SR leukemia
# [42] = tested on: SK-MEL-5 melanoma
# [43] = tested on: SN12C renal
# [44] = tested on: DU-145 prostate
# [45] = tested on: MCF7 breast
# [46] = tested on: SK-OV-3 ovarian
# [47] = tested on: LOX IMVI melanoma
# [48] = tested on: NCI-H460 lung
# [49] = tested on: RPMI-8226 leukemia
# [50] = tested on: HOP-62 NSCLC
# [51] = tested on: HT29 colon
# [52] = tested on: ACHN renal
# [53] = tested on: CCRF-CEM leukemia
# [54] = tested on: PC-3 prostate
# [55] = tested on: U251 CNS
# [56] = tested on: SK-MEL-28 melanoma
structure (smiles),measurement,setting,value
O=[N+]([O-])c1ccc(-c2nnc(SCc3ccc(O)c4ncccc34)o2)cc1,GI50,[1],0.561 µM
same,TGI,[1],> 100 µM
same,GI50,[2],0.81 µM
same,TGI,[2],12.6 µM
same,GI50,[3],0.785 µM
same,TGI,[3],> 100 µM
same,GI50,[4],0.551 µM
same,TGI,[4],> 100 µM
same,GI50,[5],0.877 µM
same,TGI,[5],> 100 µM
same,GI50,[6],0.331 µM
same,TGI,[6],> 100 µM
same,GI50,[7],0.569 µM
same,TGI,[7],> 100 µM
same,GI50,[8],0.351 µM
same,TGI,[8],> 100 µM
same,GI50,[9],0.547 µM
same,TGI,[9],> 100 µM
same,GI50,[10],0.511 µM
same,TGI,[10],27.5 µM
same,GI50,[11],0.31 µM
same,TGI,[11],> 100 µM
same,GI50,[12],0.407 µM
same,TGI,[12],> 100 µM
same,GI50,[13],4.11 µM
same,TGI,[13],> 84.5 µM
same,GI50,[14],0.674 µM
same,TGI,[14],> 100 µM
same,GI50,[15],0.363 µM
same,TGI,[15],> 100 µM
same,GI50,[16],0.508 µM
same,TGI,[16],> 100 µM
same,GI50,[17],0.237 µM
same,TGI,[17],> 100 µM
same,GI50,[18],0.347 µM
same,TGI,[18],> 53 µM
same,GI50,[19],2.52 µM
same,TGI,[19],> 30.4 µM
same,GI50,[20],0.315 µM
same,TGI,[20],> 100 µM
same,GI50,[21],0.625 µM
same,TGI,[21],> 100 µM
same,GI50,[22],3.52 µM
same,TGI,[22],> 100 µM
same,GI50,[23],0.923 µM
same,TGI,[23],69 µM
same,GI50,[24],0.572 µM
same,TGI,[24],> 100 µM
same,GI50,[25],0.746 µM
same,TGI,[25],> 100 µM
same,GI50,[26],0.189 µM
same,TGI,[26],> 100 µM
same,GI50,[27],0.425 µM
same,GI50,[28],0.333 µM
same,TGI,[28],> 100 µM
same,GI50,[29],0.649 µM
same,TGI,[29],> 100 µM
same,GI50,[30],0.417 µM
same,TGI,[30],> 100 µM
same,GI50,[31],0.39 µM
same,GI50,[32],3.71 µM
same,TGI,[32],> 100 µM
same,GI50,[33],0.455 µM
same,TGI,[33],7.56 µM
same,GI50,[34],0.732 µM
same,TGI,[34],> 100 µM
same,GI50,[35],0.749 µM
same,TGI,[35],> 100 µM
same,GI50,[36],0.386 µM
same,TGI,[36],> 100 µM
same,GI50,[37],0.608 µM
same,TGI,[37],> 100 µM
same,GI50,[38],0.381 µM
same,TGI,[38],> 100 µM
same,GI50,[39],1.01 µM
same,TGI,[39],> 100 µM
same,GI50,[40],0.378 µM
same,TGI,[40],> 100 µM
same,GI50,[41],0.424 µM
same,TGI,[41],> 100 µM
same,GI50,[42],0.357 µM
same,TGI,[42],> 30.6 µM
same,GI50,[43],0.326 µM
same,TGI,[43],> 100 µM
same,GI50,[44],0.467 µM
same,TGI,[44],> 100 µM
same,GI50,[45],0.224 µM
same,TGI,[45],> 100 µM
same,GI50,[46],0.379 µM
same,TGI,[46],3.92 µM
same,GI50,[47],0.334 µM
same,TGI,[47],> 39 µM
same,GI50,[48],0.26 µM
same,TGI,[48],> 62.7 µM
same,GI50,[49],0.402 µM
same,TGI,[49],> 100 µM
same,GI50,[50],0.59 µM
same,TGI,[50],> 100 µM
same,GI50,[51],4.84 µM
same,TGI,[51],> 100 µM
same,GI50,[52],0.36 µM
same,TGI,[52],> 100 µM
same,GI50,[53],0.451 µM
same,TGI,[53],> 100 µM
same,GI50,[54],0.358 µM
same,TGI,[54],> 100 µM
same,GI50,[55],0.181 µM
same,TGI,[55],> 100 µM
same,GI50,[56],1.12 µM
same,TGI,[56],> 100 µM
